Results: US8821922B2, “Compositions and methods for polymer-caged liposomes” (Northwestern University, priority 2007, dated 2014)

Test system: KB epidermoid carcinoma cells
Assay: Cytotoxicity study of doxorubicin-loaded liposomes (Guava ViaCount Assay)
Format: cell-based
Settings: Homo sapiens, 2 h exposure, further 48 h in fresh medium, viable cells counted by Guava ViaCount
Protocol: Cytotoxictity assay were conducted using the Guava ViaCount Assay system.
Initially, acetylene-functionalized PCLs were prepared using propargyl-modified diamine cross-linkers. Azido-poly(ethylene glycol)-modified folates were then conjugated to the acetylene groups on the surface of PCLs catalyzed by Cu(I) (FIG. 9) to present folate groups on the PCL surface. The folate conjugation to doxorubicin-loaded PCLs indeed increased the drug efficacy against cancer cells as shown through an in vitro model study against KB epidermoid carcinoma cells.
KB cells were continuously cultured in folic acid-free medium supplemented with 10% heat-inactivated fetal bovine serum at 37° C. in a humidified atmosphere containing 5% CO2. The cells were seeded into several 48-well plates at 100,000 cells per well. The plates were then returned to the incubator and the cells were allowed to grow to confluence for 24 h. The media in the wells were replaced with the pre-prepared growth medium-drug-loaded PCL mixture (200 μL of solution at the appropriate Doxorubicin concentrations). The PCL-treated cell cultures were then further incubated for 2 h in a humidified atmosphere containing 5% CO2 at 37° C., after which the growth medium—drug-loaded PCL mixture was removed by aspiration. […] The viable cells were then counted by Guava ViaCount Assay.

`COc1cccc2c1C(=O)c1c(O)c3c(c(O)c1C2=O)C[C@@](O)(C(=O)CO)C[C@@H]3O[C@H]1C[C@H](N)[C@H](O)[C@H](C)O1` [free DXR, doxorubicin] was tested, and the IC50 was 100 nM.
